The subject of the assay is small bowel luminal microbiome. The assay is described as follows: 16S sequencing of small bowel luminal contents after ICR. Type of assay: in vivo, mouse. The text has this:
Luminal small bowel contents were expressed into AllProtect Tissue Reagent (Qiagen Inc, CA). Bacterial DNA was extracted using the AllPrep DNA/RNA Mini Kit (Qiagen Inc, CA), according to kit instructions and prior to sequencing (described below). Small bowel tissue samples for RNA were placed into RNA Later (Life Technologies, NY). RNA extraction was accomplished following Qiagen RNeasy Plus Kit instruction (Qiagen Inc, CA). All nucleic acid samples were then stored at −80 Celsius until sequenced (described below).
Following bacterial community DNA extraction from harvested small bowel contents obtained from operated mice taken to 8 weeks, samples were quantified using the Qubit ssDNA kit (Life Technologies, NY). The V3 and V4 regions of the 16S gene were then amplified and tagged with region-specific primers (Illumina flowcell compatible sequences), permitting sequencing of up to 576 individual bacterial communities on the same flowcell. Fadrosh et al. (2014) Microbiome 2:6. Two positive and 2 negative controls were included in each run. FastStart Taq kit (Roche Applied Science, Indianapolis, Ind.) was used for thermocycling then equal volumes of each amplicon were pooled and cleaned using the QIAquick PCR cleanup column (Qiagen, MD). The size of library pools was then verified using the Fragment Analyzer CE (AATI, Ames Iowa) and quantified using the Qubit high sensitivity dsDNA kit. Dilution to 1 nM and addition of PhiX V3 library (Illumina, Calif.) was followed by denaturation and further dilution to 12 pM in Illumina's HT1 buffer. The pool was then loaded to the Illumina MiSeq V2 500 cycle kit cassette, a sample sheet prepared, and the MiSeq run was initiated for FASTQ generation.
The 16S rRNA amplicon sequences were assembled and processed using an integrated, high-throughput analysis pipeline established at Cincinnati Children's Hospital Medical Center. Paired-end reads were assembled and quality filtered using Pandaseq v2.8. Masella et al. (2012) BMC bioinformatics 13: 31. Reads with ambiguous base calls, minimum overlap of 10 nt, or <425 nt were culled. Demultiplexing and removal of barcodes and primers was performed using the FastX-toolkit. Pearson et al. (1997) Genomics 46: 24-36. De novo clustering at 97% sequence similarity and chimera filtering was performed using UPARSE v7. Edgar (2013) Nature methods 10: 996-998. UCLUST, as implemented in QIIME v1.8, was used for taxonomic classification to the Greengenes v13.8 database. Caporaso et al. (2010) Nature methods 7: 335-336; Edgar (2010) Bioinformatics 26: 2460-2461; and McDonald et al. (2012) The ISME journal 6: 610-618. PyNast and FastTree were used to align sequence reads and construct a phylogenetic tree. Caporaso et al. (2010) Bioinformatics 26: 266-267; and Price et al. (2010) PloS one 5: e9490; Price M N et al. (2009) Molecular biology and evolution 26: 1641-1650. Additional integrated analyses included QIIME scripts for the generation of alpha and beta diversity metrics, corresponding visualizations, and summaries and plots of taxonomic composition. Alpha and beta diversity metrics were computed after subsampling to the lowest observed read depth (n=7,793 reads).
In order to estimate the treatment effect on alpha diversity metrics adjusted for housing cohort, a generalized ANCOVA model was used. The Chaol, Shannon, Simpson and Faith's Phylogenetic Diversity indices were examined. Differences between groups in community composition post-treatment, as measured by the weighted and unweighted UniFrac metrics (Lozupone and Knight (2005) Applied and environmental microbiology 71: 8228-8235) were tested by permutational ANOVA as implemented by the ADONIS function in the R package vegan. Oksanen et al. (2015) Vegan: Community Ecology Package. 2015; and Team (2015) R: A language and environment for statistical computing R Foundation for Statistical Computing [http://www.R-project.org/. 2015]. […]

Setting [1] is: luminal contents, postop vs preop.

“Also recorded” adds a separate entry of the source.

Turning to `C[C@@H]1O[C@@H](O[C@H]2[C@H](O[C@H]3[C@H](O)[C@@H](O)C(O)O[C@@H]3CO)O[C@H](CO)[C@H](O)[C@@H]2O)[C@@H](O)[C@H](O)[C@@H]1O` (stereo partly shown) [2′-FL, 2′-fucosyllactose], under setting [1], the “relative abundance of Enterobacteriaceae after resection compared to control” value was “greater decline” and the “relative abundance of Lachnospiraceae after resection compared to control” value is listed as “relatively larger bloom”. Under “post-treatment, 8 weeks after ICR”, the “weighted or unweighted UniFrac metrics compared to control” value is given as “Nor were differences in the weighted or unweighted UniFrac metrics detected”. The “other alpha-diversity metrics examined (Chao1, Simpson, Faith's Phylogenetic Diversity) compared to control” value (small bowel luminal contents 8 weeks after ICR) is “No differences were detected”. The “microbial alpha diversity by Shannon diversity index compared to control” value (small bowel luminal contents 56 days after ICR) was “significant increase; also recorded: increased; also recorded: greater alpha diversity”. Further, under “small bowel luminal contents 56 days after ICR, adjusted for housing cohort”, the “enrichment of sequence reads of genus Parabacteroides (OTU_146) compared to controls” value is given as 4.1 log 2-fold. Besides, the “increase in microbes of the genus Parabacteroides compared to controls” value (supplemented, resected animals) is over 4 fold.

The values are drawn from patent US10857167B2, “Use of oligosaccharide compositions to enhance weight gain” (Children's Hospital Medical Center, priority 2015, dated 2020).
